Measured values taken from patent US7863289B2, “Compounds and methods for kinase modulation, and indications therefor” (Plexxikon, Inc., priority 2006, dated 2011).

Key:
Type in all cases: biochemical
Kit = Kit (Homo sapiens, UniProt P10721); experiment: Kinase activity assay, Kit; conditions: under the test conditions employed; read-out: activity toward kinase Kit, IC50
Excerpt: (§1) Assays for the activity of kinases, including, but not limited to, B-Raf, B-Raf V600E, B-Raf […] and c-Raf-1 are known in the art, for example as described in U.S. patent application Ser. No. 11/473,347 (see Iso, PCT publication WO2007002433), the disclosure of which is hereby incorporated by reference in its entirety.

Src = Src (Homo sapiens, UniProt P12931); experiment: Kinase activity assay, Src; conditions: under the test conditions employed; read-out: activity toward kinase Src, IC50
Excerpt: as §1

Flt1 = Flt1 (Homo sapiens, UniProt P17948); experiment: Kinase activity assay, Flt1; conditions: under the test conditions employed; read-out: activity toward kinase Flt1, IC50
Excerpt: as §1

Kdr = Kdr (Homo sapiens, UniProt P35968); experiment: Kinase activity assay, Kdr; conditions: under the test conditions employed; read-out: activity toward kinase Kdr, IC50
Excerpt: as §1

B-Raf = B-Raf (Homo sapiens, UniProt P15056); experiment: Kinase activity assay, B-Raf; conditions: under the test conditions employed; read-out: activity toward kinase B-Raf, IC50
Excerpt: as §1

c-Raf-1 = c-Raf-1 (Homo sapiens, UniProt P04049); experiment: Kinase activity assay, c-Raf-1; conditions: under the test conditions employed; read-out: activity toward kinase c-Raf-1, IC50
Excerpt: as §1

B-Raf V600E = B-Raf V600E (Homo sapiens, UniProt P15056, V600E); experiment: Kinase activity assay, B-Raf V600E; conditions: under the test conditions employed; read-out: activity toward kinase B-Raf V600E, IC50
Excerpt: as §1

Fms = Fms (Homo sapiens, UniProt P07333); experiment: Kinase activity assay, Fms; conditions: under the test conditions employed; read-out: activity toward kinase Fms, IC50
Excerpt: as §1

B-Raf V600E/T529I = B-Raf V600E/T529I (Homo sapiens, UniProt P15056, T529I/V600E); experiment: Kinase activity assay, B-Raf V600E/T529I; conditions: under the test conditions employed; read-out: activity toward kinase B-Raf V600E/T529I, IC50
Excerpt: as §1

Jnk1 = Jnk1 (Homo sapiens, UniProt P45983); experiment: Kinase activity assay, Jnk1; conditions: under the test conditions employed; read-out: activity toward kinase Jnk1, IC50
Excerpt: as §1

Btk = Btk (Homo sapiens, UniProt Q06187); experiment: Kinase activity assay, Btk; conditions: under the test conditions employed; read-out: activity toward kinase Btk, IC50
Excerpt: as §1

Measured: IC50

Chain of Kit (P10721 26-976): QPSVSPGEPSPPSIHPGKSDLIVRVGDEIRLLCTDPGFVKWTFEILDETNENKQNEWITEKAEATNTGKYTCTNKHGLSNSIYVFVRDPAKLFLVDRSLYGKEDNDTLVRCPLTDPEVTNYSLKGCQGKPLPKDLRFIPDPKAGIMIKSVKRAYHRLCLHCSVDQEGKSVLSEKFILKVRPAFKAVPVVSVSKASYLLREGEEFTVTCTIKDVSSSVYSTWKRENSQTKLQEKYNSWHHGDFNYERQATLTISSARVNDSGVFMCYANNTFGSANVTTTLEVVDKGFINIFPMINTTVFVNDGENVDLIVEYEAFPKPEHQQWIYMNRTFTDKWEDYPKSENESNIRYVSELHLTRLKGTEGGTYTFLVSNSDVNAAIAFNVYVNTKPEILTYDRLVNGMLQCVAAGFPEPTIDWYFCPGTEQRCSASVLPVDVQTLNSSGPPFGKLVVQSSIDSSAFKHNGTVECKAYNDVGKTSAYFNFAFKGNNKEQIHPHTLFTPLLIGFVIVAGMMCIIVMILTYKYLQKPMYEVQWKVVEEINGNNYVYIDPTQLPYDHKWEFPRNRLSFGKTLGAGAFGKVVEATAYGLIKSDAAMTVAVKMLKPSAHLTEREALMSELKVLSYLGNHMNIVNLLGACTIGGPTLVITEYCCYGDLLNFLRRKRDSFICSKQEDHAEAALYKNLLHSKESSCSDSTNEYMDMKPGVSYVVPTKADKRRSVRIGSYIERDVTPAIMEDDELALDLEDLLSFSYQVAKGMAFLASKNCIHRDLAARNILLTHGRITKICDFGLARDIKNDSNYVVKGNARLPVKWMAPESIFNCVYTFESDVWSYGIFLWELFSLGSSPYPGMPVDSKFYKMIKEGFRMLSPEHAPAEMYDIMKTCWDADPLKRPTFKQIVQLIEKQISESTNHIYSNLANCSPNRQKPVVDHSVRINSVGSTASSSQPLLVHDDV
Chain of B-Raf V600E/T529I (P15056 whole entry T529I/V600E): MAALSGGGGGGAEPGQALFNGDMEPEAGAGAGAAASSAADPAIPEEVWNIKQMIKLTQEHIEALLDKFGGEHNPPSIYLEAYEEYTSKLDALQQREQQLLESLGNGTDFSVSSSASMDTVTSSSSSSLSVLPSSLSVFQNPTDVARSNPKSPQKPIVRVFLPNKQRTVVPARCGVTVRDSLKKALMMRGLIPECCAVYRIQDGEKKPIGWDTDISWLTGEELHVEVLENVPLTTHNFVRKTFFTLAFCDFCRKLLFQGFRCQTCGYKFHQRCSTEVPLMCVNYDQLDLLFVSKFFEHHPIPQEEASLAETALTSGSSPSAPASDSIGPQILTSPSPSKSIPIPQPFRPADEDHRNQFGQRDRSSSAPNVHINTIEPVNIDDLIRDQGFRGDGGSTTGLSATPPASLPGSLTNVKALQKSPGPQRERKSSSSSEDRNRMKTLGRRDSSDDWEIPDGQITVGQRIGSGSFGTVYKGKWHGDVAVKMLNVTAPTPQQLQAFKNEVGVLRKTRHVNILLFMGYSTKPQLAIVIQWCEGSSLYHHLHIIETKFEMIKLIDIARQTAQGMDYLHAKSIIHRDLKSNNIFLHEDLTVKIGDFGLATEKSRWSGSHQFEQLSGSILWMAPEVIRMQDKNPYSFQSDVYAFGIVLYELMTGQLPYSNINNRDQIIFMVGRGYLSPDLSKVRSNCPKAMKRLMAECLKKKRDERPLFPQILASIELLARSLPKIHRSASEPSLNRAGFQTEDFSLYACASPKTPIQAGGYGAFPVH
Chain of B-Raf (P15056 whole entry): as the sequence (P15056 whole entry T529I/V600E) above, with I529T, E600V counted along it
Chain of Btk (Q06187 whole entry): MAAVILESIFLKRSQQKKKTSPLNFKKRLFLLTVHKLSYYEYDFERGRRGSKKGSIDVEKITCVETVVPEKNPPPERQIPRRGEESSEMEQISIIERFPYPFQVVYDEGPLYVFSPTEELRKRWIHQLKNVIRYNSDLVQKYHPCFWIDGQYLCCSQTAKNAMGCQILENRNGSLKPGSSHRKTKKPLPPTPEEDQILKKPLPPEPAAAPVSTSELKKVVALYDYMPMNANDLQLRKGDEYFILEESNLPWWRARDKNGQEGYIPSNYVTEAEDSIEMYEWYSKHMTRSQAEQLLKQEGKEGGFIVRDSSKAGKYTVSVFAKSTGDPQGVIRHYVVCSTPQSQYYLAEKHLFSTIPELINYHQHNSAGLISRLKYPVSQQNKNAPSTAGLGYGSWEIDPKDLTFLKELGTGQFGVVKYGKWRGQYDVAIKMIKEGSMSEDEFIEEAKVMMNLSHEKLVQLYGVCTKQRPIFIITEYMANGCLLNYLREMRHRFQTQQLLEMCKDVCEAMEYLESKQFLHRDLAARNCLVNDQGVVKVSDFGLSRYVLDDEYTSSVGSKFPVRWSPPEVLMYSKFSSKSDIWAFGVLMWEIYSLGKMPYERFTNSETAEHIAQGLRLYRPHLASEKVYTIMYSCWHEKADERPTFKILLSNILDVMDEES
Chain of c-Raf-1 (P04049 whole entry): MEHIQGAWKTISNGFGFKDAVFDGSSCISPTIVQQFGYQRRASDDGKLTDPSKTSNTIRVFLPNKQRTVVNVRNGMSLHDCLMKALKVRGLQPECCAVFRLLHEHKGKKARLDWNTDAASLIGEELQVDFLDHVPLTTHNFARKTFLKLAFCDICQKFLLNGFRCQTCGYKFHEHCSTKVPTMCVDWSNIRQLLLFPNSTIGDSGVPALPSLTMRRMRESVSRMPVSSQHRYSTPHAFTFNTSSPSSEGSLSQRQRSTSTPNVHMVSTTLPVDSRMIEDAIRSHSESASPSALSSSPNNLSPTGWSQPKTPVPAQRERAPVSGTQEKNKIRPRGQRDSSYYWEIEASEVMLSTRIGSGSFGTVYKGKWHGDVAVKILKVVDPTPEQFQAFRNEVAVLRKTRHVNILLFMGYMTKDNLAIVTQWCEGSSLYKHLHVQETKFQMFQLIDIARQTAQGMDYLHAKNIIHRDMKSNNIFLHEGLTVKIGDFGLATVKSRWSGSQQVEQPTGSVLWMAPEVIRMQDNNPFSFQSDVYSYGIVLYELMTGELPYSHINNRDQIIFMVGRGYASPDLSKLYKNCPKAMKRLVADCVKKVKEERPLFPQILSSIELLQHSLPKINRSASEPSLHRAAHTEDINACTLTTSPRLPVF
Chain of B-Raf V600E (P15056 whole entry V600E): as the sequence (P15056 whole entry T529I/V600E) above, with I529T counted along it
Chain of Src (P12931 whole entry): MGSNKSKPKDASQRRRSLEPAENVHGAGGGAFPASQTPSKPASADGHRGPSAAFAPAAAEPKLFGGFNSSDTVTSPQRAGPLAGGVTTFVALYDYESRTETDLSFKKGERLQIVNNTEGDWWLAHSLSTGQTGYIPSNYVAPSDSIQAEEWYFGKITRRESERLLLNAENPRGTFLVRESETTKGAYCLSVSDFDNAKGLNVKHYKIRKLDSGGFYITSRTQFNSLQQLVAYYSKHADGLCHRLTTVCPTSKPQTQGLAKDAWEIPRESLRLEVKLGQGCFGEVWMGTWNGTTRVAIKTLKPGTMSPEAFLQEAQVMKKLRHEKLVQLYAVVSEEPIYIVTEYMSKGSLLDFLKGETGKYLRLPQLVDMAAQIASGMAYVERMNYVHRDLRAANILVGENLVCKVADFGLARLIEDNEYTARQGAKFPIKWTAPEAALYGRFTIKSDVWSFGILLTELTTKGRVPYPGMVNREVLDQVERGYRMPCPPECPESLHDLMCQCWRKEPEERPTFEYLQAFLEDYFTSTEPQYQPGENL
Chain of Kdr (P35968 20-1356): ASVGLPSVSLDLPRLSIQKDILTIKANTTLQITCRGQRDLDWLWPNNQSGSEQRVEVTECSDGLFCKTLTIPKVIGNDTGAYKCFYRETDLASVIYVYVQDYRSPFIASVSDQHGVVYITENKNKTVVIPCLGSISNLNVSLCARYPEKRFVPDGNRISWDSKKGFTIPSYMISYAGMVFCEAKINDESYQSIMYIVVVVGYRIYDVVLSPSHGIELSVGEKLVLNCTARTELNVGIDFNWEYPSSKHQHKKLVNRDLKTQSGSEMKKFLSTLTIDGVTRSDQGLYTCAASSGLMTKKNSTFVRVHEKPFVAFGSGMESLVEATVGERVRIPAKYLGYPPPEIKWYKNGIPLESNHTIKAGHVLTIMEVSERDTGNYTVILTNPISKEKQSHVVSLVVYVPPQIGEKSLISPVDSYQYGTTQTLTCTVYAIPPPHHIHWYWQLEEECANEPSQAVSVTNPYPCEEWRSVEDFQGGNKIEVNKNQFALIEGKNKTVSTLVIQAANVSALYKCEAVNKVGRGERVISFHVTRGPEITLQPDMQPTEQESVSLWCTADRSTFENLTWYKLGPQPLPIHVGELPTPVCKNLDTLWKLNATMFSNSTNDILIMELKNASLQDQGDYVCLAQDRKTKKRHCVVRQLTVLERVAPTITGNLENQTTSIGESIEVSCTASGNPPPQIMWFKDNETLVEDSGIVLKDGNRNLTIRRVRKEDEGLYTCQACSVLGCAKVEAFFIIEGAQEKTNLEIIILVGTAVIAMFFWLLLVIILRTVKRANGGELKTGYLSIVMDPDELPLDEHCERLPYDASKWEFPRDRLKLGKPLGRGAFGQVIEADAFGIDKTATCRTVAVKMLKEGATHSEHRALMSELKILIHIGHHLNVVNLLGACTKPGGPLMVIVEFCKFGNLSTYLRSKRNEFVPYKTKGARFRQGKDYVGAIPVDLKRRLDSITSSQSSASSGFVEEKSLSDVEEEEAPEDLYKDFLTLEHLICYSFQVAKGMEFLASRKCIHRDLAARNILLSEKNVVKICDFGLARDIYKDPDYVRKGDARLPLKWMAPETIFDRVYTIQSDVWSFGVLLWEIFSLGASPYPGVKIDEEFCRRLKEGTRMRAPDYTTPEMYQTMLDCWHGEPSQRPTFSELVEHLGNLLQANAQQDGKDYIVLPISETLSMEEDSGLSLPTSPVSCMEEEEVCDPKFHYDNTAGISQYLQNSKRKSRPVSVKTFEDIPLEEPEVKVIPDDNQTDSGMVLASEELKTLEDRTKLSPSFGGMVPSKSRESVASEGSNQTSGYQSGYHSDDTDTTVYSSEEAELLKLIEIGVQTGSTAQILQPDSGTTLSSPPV

CCCc1ccc(S(=O)(=O)Nc2ccc(F)c(C(=O)c3c[nH]c4ncc(-c5nccn5C)cc34)c2F)cc1 [Compound P-0026, N-{2,4-Difluoro-3-[5-(1-methyl-1H-imidazol-2-yl)-1H-pyrrolo[2,3-b]pyridine-3-carbonyl]-phenyl}-4-propyl-benzenesulfonamide]
≤ 10 µM: Kit | Src | Flt1 | Kdr | B-Raf

N#Cc1cnc2[nH]cc(C(=O)c3c(F)ccc(NS(=O)(=O)c4ccc(C(F)(F)F)cc4)c3F)c2c1 [Compound P-0031, N-[3-(5-Cyano-1H-pyrrolo[2,3-b]pyridine-3-carbonyl)-2,4-difluoro-phenyl]-4-trifluoromethyl-benzenesulfonamide]
≤ 10 µM: Src | Flt1 | c-Raf-1 | B-Raf | B-Raf V600E

O=C(c1c(F)ccc(NS(=O)(=O)c2ccc3oc(=O)ccc3c2)c1F)c1c[nH]c2ncc(Cl)cc12 [Compound P-0005, 2-Oxo-2H-chromene-6-sulfonic acid [3-(5-chloro-1H-pyrrolo[2,3-b]pyridine-3-carbonyl)-2,4-difluoro-phenyl]-amide]
not listed: Flt1 | Jnk1 | Btk
≤ 10 µM: all other assays above

O=C(c1c(F)ccc(NS(=O)(=O)c2ccc(-c3cnco3)s2)c1F)c1c[nH]c2ncc(Cl)cc12 [Compound P-0003, 5-Oxazol-5-yl-thiophene-2-sulfonic acid [3-(5-chloro-1H-pyrrolo[2,3-b]pyridine-3-carbonyl)-2,4-difluoro-phenyl]-amide]
not listed: Flt1 | Jnk1 | Btk
≤ 10 µM: all other assays above

O=C(c1c(F)ccc(NS(=O)(=O)c2ccc(-c3ccno3)s2)c1F)c1c[nH]c2ncc(Cl)cc12 [Compound P-0006, 5-Isoxazol-5-yl-thiophene-2-sulfonic acid [3-(5-chloro-1H-pyrrolo[2,3-b]pyridine-3-carbonyl)-2,4-difluoro-phenyl]-amide]
not listed: Flt1 | Kdr | Jnk1 | Btk
≤ 10 µM: all other assays above

Cc1cnc(-c2cnc3[nH]cc(C(=O)c4c(F)ccc(NS(=O)(=O)c5ccc(C(F)(F)F)cc5)c4F)c3c2)[nH]1 [Compound P-0025, N-{2,4-Difluoro-3-[5-(5-methyl-1H-imidazol-2-yl)-1H-pyrrolo[2,3-b]pyridine-3-carbonyl]-phenyl}-4-trifluoromethyl-benzenesulfonamide]
not listed: Fms | B-Raf V600E/T529I | Btk
≤ 10 µM: all other assays above

Cc1c[nH]c(-c2cnc3[nH]cc(C(=O)c4c(F)ccc(NS(=O)(=O)c5ccc(C(C)C)cc5)c4F)c3c2)n1 [Compound P-0019, N-{2,4-Difluoro-3-[5-(4-methyl-1H-imidazol-2-yl)-1H-pyrrolo[2,3-b]pyridine-3-carbonyl]-phenyl}-4-isopropyl-benzenesulfonamide]
not listed: Flt1 | Fms | B-Raf V600E/T529I | Btk
≤ 10 µM: all other assays above

O=C(c1c(F)ccc(NS(=O)(=O)c2ccc3nsnc3c2)c1F)c1c[nH]c2ncc(Cl)cc12 [Compound P-0013, Benzo[1,2,5]thiadiazoe-5-sulfonic acid [3-(5-chloro-1H-pyrrolo[2,3-b]pyridine-3-carbonyl)-2,4-difluoro-phenyl]-amide]
not listed: Flt1 | B-Raf V600E/T529I | Jnk1
≤ 10 µM: all other assays above

CC(C)c1ccc(S(=O)(=O)Nc2ccc(F)c(C(=O)c3c[nH]c4ncc(-c5cnn(C)c5)cc34)c2F)cc1 [Compound P-0022, N-{2,4-Difluoro-3-[5-(1-methyl-1H-pyrazol-4-yl)-1H-pyrrolo[2,3-b]pyridine-3-carbonyl]-phenyl}-4-isopropyl-benzenesulfonamide]
not listed: Flt1 | B-Raf V600E/T529I | Jnk1
≤ 10 µM: all other assays above

CCCc1ccc(S(=O)(=O)Nc2ccc(F)c(C(=O)c3c[nH]c4ncc(-c5ncc(C)[nH]5)cc34)c2F)cc1 [Compound P-0023, N-{2,4-Difluoro-3-[5-(5-methyl-1H-imidazol-2-yl)-1H-pyrrolo[2,3-b]pyridine-3-carbonyl]-phenyl}-4-propyl-benzenesulfonamide]
not listed: Flt1 | B-Raf V600E/T529I | Jnk1
≤ 10 µM: all other assays above
